Results from BindingDB's records for doi:10.1016/s0960-894x(03)00298-1 (Cubist Pharmaceutical, 2003).

Tests used:
[1] = biological target: Methionyl-tRNA synthetase (Staphylococcus aureus); experiment: Inhibitory activity against Staphylococcus aureus methionyl-tRNA synthetase (SaMetRS)
[2] = biological target: Methionyl-tRNA synthetase (Enterococcus faecalis); experiment: Inhibitory activity against Enterococci faecalis methionyl-tRNA synthetase (EfMetRS)
[3] = biological target: Methionyl-tRNA synthetase (Staphylococcus aureus); experiment: Inhibitory activity against Staphylococcus aureus methionyl-tRNA synthetase (SaMetRS); remark: listed apart in the source
[4] = biological target: Methionyl-tRNA synthetase (Staphylococcus aureus); experiment: as above; remark: listed apart in the source

SMILES: O=C(O)c1cc(-c2ccc(-c3ccc(Cl)cc3Cl)cc2)n(Cc2ccccc2)n1 [1-Benzyl-5-(2',4'-dichloro-biphenyl-4-yl)-1H-pyrazole-3-carboxylic acid]
- IC50 [1]: 3.94 µM
- IC50 [2]: 29.9 µM

SMILES: O=C(O)Cn1nc(C(=O)O)cc1-c1ccc(-c2ccc(Cl)cc2Cl)cc1 [1-Carboxymethyl-5-(2',4'-dichloro-biphenyl-4-yl)-1H-pyrazole-3-carboxylic acid]
- IC50 [1]: 3.42 µM

SMILES: O=C(O)c1cc(-c2ccc(-c3ccc(Cl)cc3Cl)cc2)n(-c2ccc(Cl)cc2Cl)n1 [5-(2',4'-Dichloro-biphenyl-4-yl)-1-(2,4-dichloro-phenyl)-1H-pyrazole-3-carboxylic acid]
- IC50 [3]: 4.88 µM
- IC50 [2]: 8.99 µM

SMILES: O=C(O)c1cc(-c2ccc(-c3ccc(Cl)cc3Cl)cc2)n(CCO)n1 [5-(2',4'-Dichloro-biphenyl-4-yl)-1-(2-hydroxy-ethyl)-1H-pyrazole-3-carboxylic acid]
- IC50 [4]: 4.46 µM
- IC50 [2]: 11.4 µM

SMILES: COc1ccccc1-n1nc(C(=O)O)cc1-c1ccc(-c2ccc(Cl)cc2Cl)cc1 [5-(2',4'-Dichloro-biphenyl-4-yl)-1-(2-methoxy-phenyl)-1H-pyrazole-3-carboxylic acid]
- IC50 [1]: 1.51 µM
- IC50 [2]: 17.8 µM

SMILES: COc1ccc(-n2nc(C(=O)O)cc2-c2ccc(-c3ccc(Cl)cc3Cl)cc2)cc1 [5-(2',4'-Dichloro-biphenyl-4-yl)-1-(4-methoxy-phenyl)-1H-pyrazole-3-carboxylic acid]
- IC50 [1]: 10.5 µM

SMILES: CCn1nc(C(=O)O)cc1-c1ccc(-c2ccc(Cl)cc2Cl)cc1 [5-(2',4'-Dichloro-biphenyl-4-yl)-1-ethyl-1H-pyrazole-3-carboxylic acid]
- IC50 [1]: 1.02 µM

SMILES: O=C(O)c1cc(-c2ccc(-c3ccc(Cl)cc3Cl)cc2)n(-c2ccccc2)n1 [5-(2',4'-Dichloro-biphenyl-4-yl)-1-phenyl-1H-pyrazole-3-carboxylic acid]
- IC50 [3]: 5.47 µM

SMILES: NC(=O)c1cc(-c2ccc(-c3ccc(Cl)cc3Cl)cc2)n(-c2ccccn2)n1 [5-(2',4'-Dichloro-biphenyl-4-yl)-1-pyridin-2-yl-1H-pyrazole-3-carboxylic acid amide]
- IC50 [4]: 2.95 µM

SMILES: O=C(O)c1cc(-c2ccc(-c3ccc(Cl)cc3Cl)cc2)n(-c2ccccn2)n1 [5-(2',4'-Dichloro-biphenyl-4-yl)-1-pyridin-2-yl-1H-pyrazole-3-carboxylic acid]
- IC50 [4]: 0.63 µM
- IC50 [2]: 1.93 µM

SMILES: O=C(NCc1nnn[nH]1)c1cc(-c2ccc(-c3ccc(Cl)cc3Cl)cc2)n(-c2cccnc2)n1 [5-(2',4'-Dichloro-biphenyl-4-yl)-1-pyridin-3-yl-1H-pyrazole-3-carboxylic acid (1H-tetrazol-5-ylmethyl)-amide]
- IC50 [4]: 0.13 µM
- IC50 [2]: 3.7 µM

SMILES: O=C(O)c1cc(-c2ccc(-c3ccc(Cl)cc3Cl)cc2)n(-c2cccnc2)n1 [5-(2',4'-Dichloro-biphenyl-4-yl)-1-pyridin-3-yl-1H-pyrazole-3-carboxylic acid]
- IC50 [4]: 0.3 µM

SMILES: O=C(O)c1cc(-c2ccc(-c3ccc(Cl)cc3Cl)cc2)n(Cc2cccnc2)n1 [5-(2',4'-Dichloro-biphenyl-4-yl)-1-pyridin-3-ylmethyl-1H-pyrazole-3-carboxylic acid]
- IC50 [3]: 0.66 µM

SMILES: O=C(O)c1cc(-c2ccc(-c3ccc(Cl)cc3Cl)cc2)n(Cc2ccncc2)n1 [5-(2',4'-Dichloro-biphenyl-4-yl)-1-pyridin-4-ylmethyl-1H-pyrazole-3-carboxylic acid]
- IC50 [3]: 0.5 µM

SMILES: O=C(O)c1cc(-c2ccc(-c3ccc(Cl)cc3Cl)cc2)nn1Cc1ccccn1 [5-(2',4'-Dichloro-biphenyl-4-yl)-2-pyridin-2-ylmethyl-2H-pyrazole-3-carboxylic acid]
- IC50 [3]: 2.68 µM

SMILES: O=C(O)c1cc(-c2ccc(-c3ccc(F)c(Cl)c3)cc2)n(-c2ccc(Cl)cc2Cl)n1 [5-(3'-Chloro-4'-fluoro-biphenyl-4-yl)-1-(2,4-dichloro-phenyl)-1H-pyrazole-3-carboxylic acid]
- IC50 [3]: 17.2 µM

SMILES: O=C(O)c1cc(-c2ccc(-c3ccccc3)cc2)n(-c2ccc(Cl)cc2Cl)n1 [5-Biphenyl-4-yl-1-(2,4-dichloro-phenyl)-1H-pyrazole-3-carboxylic acid]
- IC50 [3]: 40.9 µM
